Source: PMC9386018, “A lymphatic-absorbed multi-targeted kinase inhibitor for myelofibrosis therapy” (Nature Communications, 2022)

Tested on: pERK1/2 (pT202/pY204) in splenocytes
Test: MPL^W515L MF mouse model: pERK1/2 in splenocytes by flow cytometry
Type: in vivo
Settings: MPL^W515L mice, oral 400 mg kg^−1 daily, 28 d
Experimental: The human megakaryoblastic cell line, SET-2 (ATCC), was maintained in RPMI 1640 supplemented with 20% FBS and incubated for 16 h at 10^6 cells mL^−1 with LP-182 or vehicle (DMSO; dimethyl sulfoxide), then washed in ice-cold PBS, and collected for flow cytometry analysis. Single-cell suspensions of mouse spleen were prepared from MPL^W515L MF mice (below) in RPMI 1640 supplemented with 5% FCS. Red blood cells were lysed by ammonium chloride-mediated red cell lysis (RCL) buffer and passed through a nylon mesh, and then cells were counted. For intracellular phospho-protein staining, SET-2 or spleen cells were fixed and then permeabilized using BD Phospho-flow fixation buffer and Perm-Buffer III (BD biosciences) according to the manufacturer’s protocol. Intracellular phospho-protein staining was performed using fluorochrome-conjugated antibodies, pAKT (pS473)-Alexa Fluor 647 (MB89-61) or pERK1/2 (pT202/pY204)-Alexa Fluor 647 (20 A). […] Flow cytometry was performed on a FACS Fortessa (Becton, Dickinson and Co.) using FACSDiVa software, and data analyzed using FlowJo software (Tree Star). […]
Generation of the MPL^W515L mutant MF mouse model was similar to previously described methods. […] Development of MF was evaluated by spleen volumes using MRI beginning ~14 d following bone marrow transplantation (BMT) as outlined below, continuing weekly until end of the study. […]

For `O=C(NOCCOCCOCCOCCC(=O)N1CCN(c2cnc3ccc(-c4cnc(Cl)c(NS(=O)(=O)c5ccc(F)cc5)c4)cc3n2)CC1)c1ccc(F)c(F)c1Nc1ccc(I)cc1F` [LP-182, N-(2-(2-(2-(3-(4-(7-(6-chloro-5-((4-fluorophenyl)sulfonamido)pyridin-3-yl)quinoxalin-2-yl)piperazin-1-yl)-3-oxopropoxy)ethoxy)ethoxy)ethoxy)-3,4-difluoro-2-((2-fluoro-4-iodophenyl)amino)benzamide], the “active ERK1/2 level in splenocytes” value was “reduced active AKT and ERK1/2 levels to those comparable to healthy control mice”.
